{"source": "patent US10548829B2", "about": "“Oral care compositions and methods of use” (priority 2016, dated 2020)", "key": {"[1]": {"test_system": "Aggregatibacter actinomycetemcomitans", "experiment": "Growth inhibition (OD610), single culture", "type": "cell-based", "settings": "Aggregatibacter actinomycetemcomitans", "protocol": "(§1) Single species of Streptococcus gordonii (S. gordonii, S.g) strain V288 (ATCC #35105), Streptococcus sobrinus (S. sobrinus, S.$) strain SL1[CCM 6070, CNCTC 9/89] (ATCC #33478), or Aggregatibacter actinomycetemcomitans were analyzed. Also, a mixed culture containing Actinomyces viscosus (A. viscosus, A.v) strain (ATCC, #43146), Lactobacillus casei (L. casei, L.c) strain (ATCC #334), Streptococcus oralis (S. oralis, S. o) strain (ATCC #35037), Fusobacterium nucleatum (F. nucleatum, F. n) strain (ATCC #10953), and Veilonella parvula (V. parvula, V. p) strain (ATCC #17745) was also analyzed for growth inhibition/toxicity activity. Bacteria were cultured overnight in approximately 20 ml of BHI broth (BD, cat #237500) or maintained in a specialized complex modified BHI II medium in a continuous culture chemostat at 37° C. respectively. The following day, the OD610 were determined and solutions diluted to an OD610 of 0.2 or 0.1 respectively for the assay.\n(§2) Triclosan (positive control) was prepared as a 10% stock in 100% EtOH and 3 fold serial dilutions were performed in 100% EtOH. An appropriate amount of the diluted samples was then transferred into a 96 well clear plate such that the resulting final concentration of the test samples ranged from either a 2 mM or 4 mM (highest concentration) to 0.0078 mM or 0.0156 mM (lowest concentration respectively) in 2% DMSO in 100 μl media per well. Triclosan (TCN) ranged from 0.01% to 1.67e-6% in 1% EtOH. For Zinc acetate, in order to mimic the 2:1 molar ratio (ligand:Zinc) in the Naringin:Zinc complex, the final concentration ranged from 0.7 mM to 0.0027 mM for samples with 2 mM as the highest concentration and 1.33 mM to […] for samples with 4 mM as the highest concentration in 2% DMSO. Next, 100 μl of bacterial culture at OD610 0.2 were introduced to the wells with the test samples. The wells were thoroughly mixed and incubated at 37° C. overnight. The plates were read using an Envision plate reader (PerkinElmer, Waltham, Mass.) at 610 nm.\n(§3) The IC50 for the complex, Product 5, was determined for Streptococcus gordonii (S. gordonii), Streptococcus sobrinus (S. sobrinus), Aggregatibacter actinomycetemcomitans (A. actinomycetemcomitans), and also for the mixed bacterial culture. […] Triclosan (TCN) was included as a positive control for bacterial inhibition.\n(§4) Further characterization was performed on planktonic oral microbes; Streptococcus sobrinus (Cariongenic—strain-SL1[CCM 6070, CNCTC 9/89] (ATCC cat. #33478), Streptococcus gordonii (Arginolytic—strain V288 (ATCC cat. #35105), Actinomyces viscosus) as well late colonizer (Gram −), pathogenic Aggregatibacter actinomycetemcomitans. All microbes were grown in their respective culture media: Streptococcus sobrinus and Streptococcus gordonii in BHI broth (BD, cat #237500), Aggregatibacter actinomycetemcomitans in BHI broth supplemented with 0.5% Yeast Extract (BD, cat #210941) and Actinomyces viscosus in Trypticase Soy Broth (BD, cat #211768) supplemented with 0.5% Yeast Extract (BD, cat #210941). Bacteria were cultured overnight in 37° C., 5% CO2 in approximately 20 ml of the appropriate culture broth. The following day, the OD610 was determined and solutions were diluted to 0.2 for the assay.\n(§5) Triclosan (positive control) was prepared as a 10% stock in 100% EtOH and 3 fold serial dilutions were done in 100% EtOH. […] For Naringin+Zinc combination, while the highest total overall concentration was 2 mM, the exact concentration was Naringin (1.3 mM) and Zinc Acetate (0.7 mM) due to the compositions 2:1 molar ratio. For Zinc Acetate, in order to mimic the 2:1 ratio (ligand:Zinc) composition as in the complex, the final concentration ranged from 0.7 mM to 0.0027 mM in 2% DMSO.\n(§6) A 100 μl aliquot of bacterial culture at OD610 0.2 were introduced to the wells with the test samples. The wells were thoroughly mixed and plates incubated overnight in a 37° C. incubator with or without 5% CO2 depending upon the bacterial species."}, "Streptococcus gordonii": {"test_system": "Streptococcus gordonii", "experiment": "Growth inhibition (OD610), single culture", "type": "cell-based", "settings": "Streptococcus gordonii", "protocol": "as §1, §2, §3, §4, §5, §6"}, "Streptococcus sobrinus": {"test_system": "Streptococcus sobrinus", "experiment": "Growth inhibition (OD610), single culture", "type": "cell-based", "settings": "Streptococcus sobrinus", "protocol": "as §1, §2, §3, §4, §5, §6"}, "[2]": {"test_system": "mixed culture containing Actinomyces viscosus, Lactobacillus casei, Streptococcus oralis, Fusobacterium nucleatum and Veilonella parvula", "experiment": "Growth inhibition (OD610), mixed chemostat culture", "type": "cell-based, A. viscosus, L. casei, S. oralis, F. nucleatum, V. parvula", "settings": "mixed species cultures; 1% EtOH; data not shown", "protocol": "as §1, §2, §3\n(§7) Antimicrobial characterization was also performed on mixed culture solutions having at least five microbial species present. A mixed culture containing Actinomyces viscosus (A. viscosus, A.v) (ATCC, #43146), Lactobacillus casei (L. casei, L.c) (ATCC #334), Streptococcus oralis (S. oralis, S.o) (ATCC #35037), Fusobacterium nucleatum (F. nucleatum, F.n) (ATCC #10953) and Veilonella parvula (V. parvula, V.p) (ATCC #17745) was maintained in a specialized complex medium (Modified BHI II Medium) in a continuous culture chemostat at 37° C. Approximately 10 ml of the culture was removed and the OD610 was determined. The assay was performed using cultures at two concentrations; 0.03 and 0.1 at OD610. […] Triclosan (positive control) was prepared as a 10% stock in 100% EtOH and 3 fold serial dilutions were performed in 100% EtOH. […] For Zinc Acetate, in order to mimic the 2:1 ratio (ligand:Zinc) composition as in the complex, the final concentration range from 0.7 mM to 0.0027 mM in 2% DMSO was used instead.\n(§8) A 100 μl of bacterial culture at chosen OD610 (0.03 or 0.1) was introduced into the wells with the test samples. The wells were thoroughly mixed and plates incubated overnight in a 37° C. incubator with or without 5% CO2. After approximately 12-13 hours of treatment, the plate was read using Envision plate reader (Serial #1040984), absorbance at 610 nm. The % inhibition relative to control was determined as described for previously described antimicrobial protocols, supra."}, "[3]": {"experiment": "Growth inhibition (OD610), mixed chemostat culture", "type": "cell-based, A. viscosus, L. casei, S. oralis, F. nucleatum, V. parvula", "protocol": "as §1, §2, §3, §7, §8"}, "[4]": {"test_system": "planktonic oral bacterial species (S. sobrinus, S. gordonii, A. actinomycetemcomitans, A. viscosus, mixed cultures)", "experiment": "Growth inhibition, summary statements over the single, co- and mixed cultures tested", "type": "cell-based, oral bacteria", "protocol": "as §1, §2, §3, §4, §5, §6"}}, "data": [{"smiles": "Oc1cc(Cl)ccc1Oc1ccc(Cl)cc1Cl", "note": "[TCN, Triclosan]", "values": [{"measurement": "IC50", "setting": "[1]", "result": "0.61 ± 0.46", "unit": "µM"}, {"measurement": "IC50", "setting": "Streptococcus gordonii", "result": "6 ± 0.85", "unit": "µM"}, {"measurement": "IC50", "setting": "Streptococcus sobrinus", "result": "6 ± 1.7", "unit": "µM"}, {"measurement": "IC50 of positive control, range in ppm", "setting": "[2]", "result": "1.4-2.2 ppm"}, {"measurement": "IC50", "setting": "[3]; Mixed Species (aerobic)", "result": 7.6, "unit": "µM"}, {"measurement": "IC50", "setting": "[3]; Mixed Species (anaerobic)", "result": 4.8, "unit": "µM"}, {"measurement": "IC50 range over cultures tested, corresponding ppm", "setting": "[4]; S. sobrinus, S. gordonii, A. actinomycetemcomitans and mixed chemostat cultures", "result": "0.18-2.2 ppm"}, {"measurement": "IC50", "setting": "[4]; read-out: concentration that inhibited 50% of the bacterial growth (IC50), range over cultures tested", "result": "0.61 to 7.6", "unit": "µM"}, {"measurement": "IC50 of positive control, range in ppm", "setting": "[4]; same species of bacteria cultures (single and co-cultures), 1% EtOH", "result": "1-2.7 ppm"}]}]}
